Where “and” joins values, the source holds several entries; their conditions need not be identical. Equal values may be shown once.
molecular target: T1, MKP3 (Homo sapiens, UniProt Q16828); assay: PTP inhibition assay (pNPP); type: biochemical; details: not given
T1 sequence (Q16828 1-381): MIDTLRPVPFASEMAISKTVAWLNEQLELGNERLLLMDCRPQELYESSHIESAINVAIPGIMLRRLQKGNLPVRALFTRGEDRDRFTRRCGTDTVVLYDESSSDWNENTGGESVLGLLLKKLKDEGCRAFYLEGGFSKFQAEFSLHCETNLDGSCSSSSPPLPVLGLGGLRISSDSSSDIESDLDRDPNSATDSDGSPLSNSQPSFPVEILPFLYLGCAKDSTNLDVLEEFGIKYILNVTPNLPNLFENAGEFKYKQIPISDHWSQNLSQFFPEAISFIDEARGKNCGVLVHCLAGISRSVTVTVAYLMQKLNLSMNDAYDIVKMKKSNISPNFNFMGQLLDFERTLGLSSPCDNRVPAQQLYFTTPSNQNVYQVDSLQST

SMILES	IC50
O=C(CS(=O)(=O)O)Nc1ccc2nc(C(F)(F)F)[nH]c2c1	> 100 µM
O=C(CS(=O)(=O)O)Nc1cnc2ccccc2c1	> 100 µM
O=C(Nc1cccc(OCc2ccccc2)c1)C(c1ccccc1)S(=O)(=O)O (stereo not drawn) [Compound L319M52]	> 200 µM
O=C(Nc1ccc2nc(C(F)(F)F)[nH]c2c1)C(c1ccccc1)S(=O)(=O)O (stereo not drawn) [Compound L319M54]	> 200 µM
O=C(Nc1ccc(N2CCOCC2)cc1)C(c1ccccc1)S(=O)(=O)O (stereo not drawn) [Compound L319M68]	> 200 µM
O=C(Nc1cnc2ccccc2c1)C(c1ccccc1)S(=O)(=O)O (stereo not drawn) [Compound L319M88]	> 200 µM
O=C(Nc1nc2ccccc2s1)C(c1ccccc1)S(=O)(=O)O (stereo not drawn) [Compound L319N15]	> 200 µM
O=C(C(c1ccccc1)S(=O)(=O)O)N1CCC(Cc2ccccc2)CC1 (stereo not drawn) [Compound L319N46]	> 200 µM
O=C(C(c1ccccc1)S(=O)(=O)O)N1CCC(c2ccc(Cl)c(Cl)c2)CC1 (stereo not drawn) [Compound L319N47]	> 200 µM
O=C(C(c1ccccc1)S(=O)(=O)O)N1CCCC2CCCCC21 (stereo not drawn) [Compound L319N53]	> 200 µM

molecular target: PTPσ (Homo sapiens, UniProt Q13332); assay: PTP inhibition assay (pNPP); type: biochemical; details: not given
Sequence (Q13332 30-1948): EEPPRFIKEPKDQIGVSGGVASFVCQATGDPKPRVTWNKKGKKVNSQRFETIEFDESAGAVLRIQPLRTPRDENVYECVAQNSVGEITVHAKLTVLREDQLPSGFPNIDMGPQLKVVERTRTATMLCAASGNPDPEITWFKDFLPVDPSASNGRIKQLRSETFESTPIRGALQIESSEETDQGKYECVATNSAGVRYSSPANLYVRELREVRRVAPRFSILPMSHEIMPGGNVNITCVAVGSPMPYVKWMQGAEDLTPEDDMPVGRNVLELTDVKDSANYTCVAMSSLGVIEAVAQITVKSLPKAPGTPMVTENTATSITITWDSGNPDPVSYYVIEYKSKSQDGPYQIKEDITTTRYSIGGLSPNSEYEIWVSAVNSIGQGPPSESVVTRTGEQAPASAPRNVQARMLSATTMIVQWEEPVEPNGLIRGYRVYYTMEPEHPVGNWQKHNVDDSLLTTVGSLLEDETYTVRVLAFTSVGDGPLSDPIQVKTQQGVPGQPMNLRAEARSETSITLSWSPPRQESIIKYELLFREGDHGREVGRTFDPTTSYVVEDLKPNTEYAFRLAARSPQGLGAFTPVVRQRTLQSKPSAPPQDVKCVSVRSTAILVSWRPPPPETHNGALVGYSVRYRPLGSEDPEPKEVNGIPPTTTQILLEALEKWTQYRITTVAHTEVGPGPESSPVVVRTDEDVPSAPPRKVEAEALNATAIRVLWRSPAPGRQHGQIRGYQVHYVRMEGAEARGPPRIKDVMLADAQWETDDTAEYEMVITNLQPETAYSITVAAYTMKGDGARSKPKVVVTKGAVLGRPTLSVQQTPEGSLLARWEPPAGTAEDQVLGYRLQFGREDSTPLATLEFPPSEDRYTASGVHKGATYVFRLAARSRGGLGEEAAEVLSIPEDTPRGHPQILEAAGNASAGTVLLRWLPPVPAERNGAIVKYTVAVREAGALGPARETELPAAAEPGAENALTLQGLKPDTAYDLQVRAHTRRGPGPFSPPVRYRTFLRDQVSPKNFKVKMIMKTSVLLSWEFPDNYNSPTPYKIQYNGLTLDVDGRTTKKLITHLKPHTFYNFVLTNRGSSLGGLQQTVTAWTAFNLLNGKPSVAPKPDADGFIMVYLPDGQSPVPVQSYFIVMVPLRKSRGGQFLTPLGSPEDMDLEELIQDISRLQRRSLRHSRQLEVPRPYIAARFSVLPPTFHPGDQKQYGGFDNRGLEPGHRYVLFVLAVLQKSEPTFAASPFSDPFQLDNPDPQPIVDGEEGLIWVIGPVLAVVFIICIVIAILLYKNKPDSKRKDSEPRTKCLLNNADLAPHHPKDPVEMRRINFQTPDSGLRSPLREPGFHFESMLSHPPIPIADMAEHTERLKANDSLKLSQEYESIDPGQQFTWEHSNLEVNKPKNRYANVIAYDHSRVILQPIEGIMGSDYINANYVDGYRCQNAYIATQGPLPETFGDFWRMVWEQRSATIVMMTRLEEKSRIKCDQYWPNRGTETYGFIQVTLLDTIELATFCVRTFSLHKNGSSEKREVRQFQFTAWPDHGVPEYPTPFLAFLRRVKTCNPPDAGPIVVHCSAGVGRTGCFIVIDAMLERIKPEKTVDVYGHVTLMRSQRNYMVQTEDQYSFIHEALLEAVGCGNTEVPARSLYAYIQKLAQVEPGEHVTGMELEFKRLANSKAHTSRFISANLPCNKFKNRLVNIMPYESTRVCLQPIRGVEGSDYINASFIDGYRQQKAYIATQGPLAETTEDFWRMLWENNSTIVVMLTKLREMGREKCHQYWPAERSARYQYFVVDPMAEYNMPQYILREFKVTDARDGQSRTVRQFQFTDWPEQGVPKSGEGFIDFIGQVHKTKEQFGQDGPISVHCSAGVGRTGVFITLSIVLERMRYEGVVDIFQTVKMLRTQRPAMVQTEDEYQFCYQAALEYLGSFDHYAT

SMILES	IC50
O=C(Nc1ccc2nc(C(F)(F)F)[nH]c2c1)C(c1ccccc1)S(=O)(=O)O (stereo not drawn) [Compound L319M54]	> 200 µM
O=C(Nc1ccc(N2CCOCC2)cc1)C(c1ccccc1)S(=O)(=O)O (stereo not drawn) [Compound L319M68]	> 200 µM
O=C(Nc1cnc2ccccc2c1)C(c1ccccc1)S(=O)(=O)O (stereo not drawn) [Compound L319M88]	> 200 µM
O=C(Nc1nc2ccccc2s1)C(c1ccccc1)S(=O)(=O)O (stereo not drawn) [Compound L319N15]	> 200 µM

same assay, conditions: read-out: IC50 PTPσ

SMILES	IC50
O=C(CS(=O)(=O)O)Nc1ccc2nc(C(F)(F)F)[nH]c2c1	> 100 µM
O=C(CS(=O)(=O)O)Nc1cnc2ccccc2c1	> 100 µM
O=C(Nc1cccc(OCc2ccccc2)c1)C(c1ccccc1)S(=O)(=O)O (stereo not drawn) [Compound L319M52]	> 200 µM
O=C(C(c1ccccc1)S(=O)(=O)O)N1CCC(Cc2ccccc2)CC1 (stereo not drawn) [Compound L319N46]	> 200 µM
O=C(C(c1ccccc1)S(=O)(=O)O)N1CCC(c2ccc(Cl)c(Cl)c2)CC1 (stereo not drawn) [Compound L319N47]	> 200 µM
O=C(C(c1ccccc1)S(=O)(=O)O)N1CCCC2CCCCC21 (stereo not drawn) [Compound L319N53]	> 200 µM

molecular target: LAR (Homo sapiens, UniProt P10586); assay: PTP inhibition assay (pNPP); type: biochemical; details: not given
Sequence (P10586 30-1907): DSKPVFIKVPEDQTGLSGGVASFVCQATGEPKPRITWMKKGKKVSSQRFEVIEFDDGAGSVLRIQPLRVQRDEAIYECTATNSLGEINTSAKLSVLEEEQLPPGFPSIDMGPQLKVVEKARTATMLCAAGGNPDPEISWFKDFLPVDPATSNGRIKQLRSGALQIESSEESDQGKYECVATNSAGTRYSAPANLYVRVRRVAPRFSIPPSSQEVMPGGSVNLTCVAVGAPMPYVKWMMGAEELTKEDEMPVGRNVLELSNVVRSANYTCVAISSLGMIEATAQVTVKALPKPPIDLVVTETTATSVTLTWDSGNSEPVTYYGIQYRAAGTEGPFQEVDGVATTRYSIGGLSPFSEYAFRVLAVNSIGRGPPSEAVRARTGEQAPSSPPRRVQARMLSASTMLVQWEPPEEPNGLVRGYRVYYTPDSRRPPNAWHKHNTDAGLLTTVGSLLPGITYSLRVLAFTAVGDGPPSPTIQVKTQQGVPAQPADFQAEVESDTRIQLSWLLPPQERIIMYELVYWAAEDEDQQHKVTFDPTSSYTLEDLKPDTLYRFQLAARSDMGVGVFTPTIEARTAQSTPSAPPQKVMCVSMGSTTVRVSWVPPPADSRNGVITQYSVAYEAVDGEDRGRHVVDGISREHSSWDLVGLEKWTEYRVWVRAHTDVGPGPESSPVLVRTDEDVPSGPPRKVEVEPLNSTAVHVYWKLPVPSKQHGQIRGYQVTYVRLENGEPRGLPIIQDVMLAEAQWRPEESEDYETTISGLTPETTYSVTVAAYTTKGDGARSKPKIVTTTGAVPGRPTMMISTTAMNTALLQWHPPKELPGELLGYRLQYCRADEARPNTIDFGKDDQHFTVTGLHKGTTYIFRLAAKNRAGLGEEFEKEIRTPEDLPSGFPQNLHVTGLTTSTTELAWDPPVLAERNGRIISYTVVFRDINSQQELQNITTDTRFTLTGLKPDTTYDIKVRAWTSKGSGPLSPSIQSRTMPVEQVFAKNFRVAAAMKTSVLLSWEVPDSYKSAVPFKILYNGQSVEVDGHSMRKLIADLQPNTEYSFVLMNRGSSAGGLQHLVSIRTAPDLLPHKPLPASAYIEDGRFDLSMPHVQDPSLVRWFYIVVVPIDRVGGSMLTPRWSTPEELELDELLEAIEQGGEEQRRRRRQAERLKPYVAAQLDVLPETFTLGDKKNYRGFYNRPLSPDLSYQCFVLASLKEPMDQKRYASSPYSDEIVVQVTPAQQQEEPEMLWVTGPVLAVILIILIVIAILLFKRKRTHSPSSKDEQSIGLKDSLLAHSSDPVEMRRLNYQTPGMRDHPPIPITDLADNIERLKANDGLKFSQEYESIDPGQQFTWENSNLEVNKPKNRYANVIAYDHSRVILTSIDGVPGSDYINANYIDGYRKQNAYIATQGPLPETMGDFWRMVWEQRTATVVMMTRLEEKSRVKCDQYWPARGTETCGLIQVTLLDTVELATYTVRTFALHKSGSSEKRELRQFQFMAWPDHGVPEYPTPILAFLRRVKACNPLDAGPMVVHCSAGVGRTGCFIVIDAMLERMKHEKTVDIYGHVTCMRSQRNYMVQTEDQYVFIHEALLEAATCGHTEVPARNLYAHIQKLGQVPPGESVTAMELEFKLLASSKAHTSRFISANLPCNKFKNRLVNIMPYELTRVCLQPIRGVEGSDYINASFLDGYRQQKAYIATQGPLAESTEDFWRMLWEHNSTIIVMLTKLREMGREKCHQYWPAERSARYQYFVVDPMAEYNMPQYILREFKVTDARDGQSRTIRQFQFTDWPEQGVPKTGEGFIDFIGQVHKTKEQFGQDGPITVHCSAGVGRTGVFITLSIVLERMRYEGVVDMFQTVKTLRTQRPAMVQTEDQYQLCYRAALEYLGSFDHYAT

SMILES	IC50
O=C(CS(=O)(=O)O)Nc1ccc2nc(C(F)(F)F)[nH]c2c1	> 100 µM
O=C(CS(=O)(=O)O)Nc1cnc2ccccc2c1	> 100 µM
O=C(Nc1cccc(OCc2ccccc2)c1)C(c1ccccc1)S(=O)(=O)O (stereo not drawn) [Compound L319M52]	> 200 µM
O=C(Nc1ccc2nc(C(F)(F)F)[nH]c2c1)C(c1ccccc1)S(=O)(=O)O (stereo not drawn) [Compound L319M54]	> 200 µM
O=C(Nc1ccc(N2CCOCC2)cc1)C(c1ccccc1)S(=O)(=O)O (stereo not drawn) [Compound L319M68]	> 200 µM
O=C(Nc1cnc2ccccc2c1)C(c1ccccc1)S(=O)(=O)O (stereo not drawn) [Compound L319M88]	> 200 µM
O=C(Nc1nc2ccccc2s1)C(c1ccccc1)S(=O)(=O)O (stereo not drawn) [Compound L319N15]	> 200 µM
O=C(C(c1ccccc1)S(=O)(=O)O)N1CCC(Cc2ccccc2)CC1 (stereo not drawn) [Compound L319N46]	> 200 µM
O=C(C(c1ccccc1)S(=O)(=O)O)N1CCC(c2ccc(Cl)c(Cl)c2)CC1 (stereo not drawn) [Compound L319N47]	> 200 µM
O=C(C(c1ccccc1)S(=O)(=O)O)N1CCCC2CCCCC21 (stereo not drawn) [Compound L319N53]	> 200 µM

molecular target: T2, Ssu72 (Homo sapiens, UniProt Q9NP77); assay: PTP inhibition assay (pNPP); type: biochemical; details: pNPP at Km, pH 7.0, 25° C.; read-out: IC50 Ssu72
T2 sequence (Q9NP77 1-194): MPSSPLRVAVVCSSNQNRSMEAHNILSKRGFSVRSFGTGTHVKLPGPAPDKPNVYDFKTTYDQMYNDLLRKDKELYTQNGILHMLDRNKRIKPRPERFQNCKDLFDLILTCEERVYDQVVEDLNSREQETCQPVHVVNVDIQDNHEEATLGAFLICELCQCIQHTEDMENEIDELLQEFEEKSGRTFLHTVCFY

SMILES	IC50
O=C(CS(=O)(=O)O)Nc1ccc2nc(C(F)(F)F)[nH]c2c1	> 100 µM
O=C(CS(=O)(=O)O)Nc1cnc2ccccc2c1	> 100 µM
O=C(Nc1cccc(OCc2ccccc2)c1)C(c1ccccc1)S(=O)(=O)O (stereo not drawn) [Compound L319M52]	97.6 µM
O=C(Nc1ccc2nc(C(F)(F)F)[nH]c2c1)C(c1ccccc1)S(=O)(=O)O (stereo not drawn) [Compound L319M54]	> 200 µM
O=C(Nc1ccc(N2CCOCC2)cc1)C(c1ccccc1)S(=O)(=O)O (stereo not drawn) [Compound L319M68]	> 200 µM
O=C(Nc1cnc2ccccc2c1)C(c1ccccc1)S(=O)(=O)O (stereo not drawn) [Compound L319M88]	> 200 µM
O=C(Nc1nc2ccccc2s1)C(c1ccccc1)S(=O)(=O)O (stereo not drawn) [Compound L319N15]	69 µM
O=C(C(c1ccccc1)S(=O)(=O)O)N1CCC(Cc2ccccc2)CC1 (stereo not drawn) [Compound L319N46]	> 200 µM
O=C(C(c1ccccc1)S(=O)(=O)O)N1CCC(c2ccc(Cl)c(Cl)c2)CC1 (stereo not drawn) [Compound L319N47]	> 200 µM
O=C(C(c1ccccc1)S(=O)(=O)O)N1CCCC2CCCCC21 (stereo not drawn) [Compound L319N53]	> 200 µM

molecular target: T3, CD45 (Homo sapiens, UniProt P08575); assay: PTP inhibition assay (pNPP); type: biochemical; details: pNPP at Km, pH 7.0, 25° C.
T3 sequence (P08575 26-1306): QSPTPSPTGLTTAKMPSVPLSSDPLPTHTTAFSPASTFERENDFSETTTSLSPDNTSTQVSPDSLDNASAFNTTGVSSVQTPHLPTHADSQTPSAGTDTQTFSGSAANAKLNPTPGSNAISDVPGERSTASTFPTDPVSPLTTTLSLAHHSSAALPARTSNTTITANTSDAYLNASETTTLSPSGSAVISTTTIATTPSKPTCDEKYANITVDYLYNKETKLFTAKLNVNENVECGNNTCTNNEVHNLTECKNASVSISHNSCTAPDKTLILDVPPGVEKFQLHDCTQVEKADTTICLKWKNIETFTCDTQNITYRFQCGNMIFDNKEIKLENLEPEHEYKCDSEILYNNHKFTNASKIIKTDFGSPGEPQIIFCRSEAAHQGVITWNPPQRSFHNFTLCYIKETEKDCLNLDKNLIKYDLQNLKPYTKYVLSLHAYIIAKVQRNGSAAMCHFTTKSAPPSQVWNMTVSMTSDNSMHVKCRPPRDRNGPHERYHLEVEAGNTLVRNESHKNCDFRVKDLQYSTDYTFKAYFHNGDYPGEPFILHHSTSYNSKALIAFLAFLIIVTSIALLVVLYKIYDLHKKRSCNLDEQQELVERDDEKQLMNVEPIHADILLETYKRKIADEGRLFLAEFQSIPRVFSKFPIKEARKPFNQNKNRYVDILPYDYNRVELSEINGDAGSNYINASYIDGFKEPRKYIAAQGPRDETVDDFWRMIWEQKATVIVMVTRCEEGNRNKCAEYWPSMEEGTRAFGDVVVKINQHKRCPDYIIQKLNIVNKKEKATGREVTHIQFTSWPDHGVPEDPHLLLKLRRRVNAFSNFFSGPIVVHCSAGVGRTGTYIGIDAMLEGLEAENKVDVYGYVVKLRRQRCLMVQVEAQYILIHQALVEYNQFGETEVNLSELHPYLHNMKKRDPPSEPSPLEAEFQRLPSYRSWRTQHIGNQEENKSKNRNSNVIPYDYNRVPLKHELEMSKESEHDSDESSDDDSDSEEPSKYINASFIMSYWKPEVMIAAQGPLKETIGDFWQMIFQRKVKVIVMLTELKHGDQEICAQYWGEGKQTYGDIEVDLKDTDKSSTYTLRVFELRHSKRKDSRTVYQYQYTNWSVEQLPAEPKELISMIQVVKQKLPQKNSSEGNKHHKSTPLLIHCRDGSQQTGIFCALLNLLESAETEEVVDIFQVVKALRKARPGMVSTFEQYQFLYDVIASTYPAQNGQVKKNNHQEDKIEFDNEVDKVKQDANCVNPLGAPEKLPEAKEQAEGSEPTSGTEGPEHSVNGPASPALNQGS

SMILES	IC50
O=C(CS(=O)(=O)O)Nc1ccc2nc(C(F)(F)F)[nH]c2c1	> 100 µM
O=C(CS(=O)(=O)O)Nc1cnc2ccccc2c1	> 100 µM
O=C(Nc1cccc(OCc2ccccc2)c1)C(c1ccccc1)S(=O)(=O)O (stereo not drawn) [Compound L319M52]	> 200 µM
O=C(Nc1ccc2nc(C(F)(F)F)[nH]c2c1)C(c1ccccc1)S(=O)(=O)O (stereo not drawn) [Compound L319M54]	> 200 µM
O=C(Nc1ccc(N2CCOCC2)cc1)C(c1ccccc1)S(=O)(=O)O (stereo not drawn) [Compound L319M68]	> 200 µM
O=C(Nc1cnc2ccccc2c1)C(c1ccccc1)S(=O)(=O)O (stereo not drawn) [Compound L319M88]	> 200 µM
O=C(Nc1nc2ccccc2s1)C(c1ccccc1)S(=O)(=O)O (stereo not drawn) [Compound L319N15]	> 200 µM and 180 µM
O=C(C(c1ccccc1)S(=O)(=O)O)N1CCC(Cc2ccccc2)CC1 (stereo not drawn) [Compound L319N46]	> 200 µM
O=C(C(c1ccccc1)S(=O)(=O)O)N1CCC(c2ccc(Cl)c(Cl)c2)CC1 (stereo not drawn) [Compound L319N47]	140 µM
O=C(C(c1ccccc1)S(=O)(=O)O)N1CCCC2CCCCC21 (stereo not drawn) [Compound L319N53]	> 200 µM

molecular target: T4, Laforin (Homo sapiens, UniProt O95278); assay: PTP inhibition assay (pNPP); type: biochemical; details: pNPP at Km, pH 7.0, 25° C.; read-out: IC50 Laforin
T4 sequence (O95278 1-331): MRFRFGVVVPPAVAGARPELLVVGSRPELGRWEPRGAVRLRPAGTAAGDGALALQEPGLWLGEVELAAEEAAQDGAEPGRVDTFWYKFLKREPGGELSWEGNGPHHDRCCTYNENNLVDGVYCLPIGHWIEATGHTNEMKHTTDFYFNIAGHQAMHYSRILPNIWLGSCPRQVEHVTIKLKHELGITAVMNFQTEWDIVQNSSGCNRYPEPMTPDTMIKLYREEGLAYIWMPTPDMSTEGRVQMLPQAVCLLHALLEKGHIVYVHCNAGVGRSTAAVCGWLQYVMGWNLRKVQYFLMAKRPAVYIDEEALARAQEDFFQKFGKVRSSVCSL

SMILES	IC50
O=C(CS(=O)(=O)O)Nc1ccc2nc(C(F)(F)F)[nH]c2c1	> 100 µM
O=C(CS(=O)(=O)O)Nc1cnc2ccccc2c1	> 100 µM
O=C(Nc1cccc(OCc2ccccc2)c1)C(c1ccccc1)S(=O)(=O)O (stereo not drawn) [Compound L319M52]	5.08 µM
O=C(Nc1ccc2nc(C(F)(F)F)[nH]c2c1)C(c1ccccc1)S(=O)(=O)O (stereo not drawn) [Compound L319M54]	4.25 µM
O=C(Nc1ccc(N2CCOCC2)cc1)C(c1ccccc1)S(=O)(=O)O (stereo not drawn) [Compound L319M68]	7.47 µM and 7.5 µM
O=C(Nc1cnc2ccccc2c1)C(c1ccccc1)S(=O)(=O)O (stereo not drawn) [Compound L319M88]	8.51 µM and 8.5 µM
O=C(Nc1nc2ccccc2s1)C(c1ccccc1)S(=O)(=O)O (stereo not drawn) [Compound L319N15]	2.1 µM
O=C(C(c1ccccc1)S(=O)(=O)O)N1CCC(Cc2ccccc2)CC1 (stereo not drawn) [Compound L319N46]	> 200 µM
O=C(C(c1ccccc1)S(=O)(=O)O)N1CCC(c2ccc(Cl)c(Cl)c2)CC1 (stereo not drawn) [Compound L319N47]	61 µM
O=C(C(c1ccccc1)S(=O)(=O)O)N1CCCC2CCCCC21 (stereo not drawn) [Compound L319N53]	> 200 µM
